Measurements taken from ChEMBL document CHEMBL1148534, “p38 MAP kinase inhibitors: metabolically stabilized piperidine-substituted quinolinones and naphthyridinones” (Bioorg Med Chem Lett, 2006).

Legend:
[1] = target: T1, Mitogen-activated protein kinase 14 (Homo sapiens, UniProt Q16539); test: Inhibition of P38 alpha MAPK
[2] = target: T1, Mitogen-activated protein kinase 14; test: Inhibition of TNF alpha release in THP1 cells; type: functional, cell-based, THP-1
[3] = target: T1, Mitogen-activated protein kinase 14; test: Inhibition of LPS stimulated TNF alpha release in whole blood; type: functional, tissue-based
[4] = Volume of distribution in rat; type: ADME, organism-based; conditions: in vivo, read-out: Vdss
[5] = Oral bioavailability in rhesus monkey; type: ADME, organism-based, Macaca mulatta; conditions: in vivo
[6] = Oral bioavailability in rat; type: ADME, organism-based; conditions: in vivo
[7] = Plasma clearance in rhesus monkey; type: ADME, organism-based, Macaca mulatta
[8] = Half life in rat, iv; type: ADME, organism-based; conditions: in vivo
[9] = Half life in rhesus monkey, iv; type: ADME, organism-based, Macaca mulatta; conditions: in vivo
[10] = Volume of distribution in rhesus monkey; type: ADME, organism-based, Macaca mulatta; conditions: in vivo, read-out: Vdss
[11] = Plasma clearance in rat; type: ADME, organism-based
[12] = Volume of distribution in dog; type: ADME, organism-based, Canis lupus familiaris; conditions: in vivo, read-out: Vdss
[13] = Oral bioavailability in dog; type: ADME, organism-based, Canis lupus familiaris; conditions: in vivo
[14] = Plasma clearance in dog; type: ADME, organism-based, Canis lupus familiaris
[15] = Half life in dog, iv; type: ADME, organism-based, Canis lupus familiaris; conditions: in vivo

T1 sequence (Q16539 whole entry): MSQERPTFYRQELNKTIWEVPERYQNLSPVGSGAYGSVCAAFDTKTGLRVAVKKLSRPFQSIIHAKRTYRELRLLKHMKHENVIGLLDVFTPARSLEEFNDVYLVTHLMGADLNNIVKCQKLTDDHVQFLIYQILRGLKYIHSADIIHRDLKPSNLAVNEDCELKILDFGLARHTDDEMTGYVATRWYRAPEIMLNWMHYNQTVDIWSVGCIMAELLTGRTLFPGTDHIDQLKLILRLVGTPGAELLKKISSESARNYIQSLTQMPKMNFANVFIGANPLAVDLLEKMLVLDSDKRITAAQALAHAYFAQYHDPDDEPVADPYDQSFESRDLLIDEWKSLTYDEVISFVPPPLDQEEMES

IC50 [1] [nM]	IC50 [2] [nM]	IC50 [3] [nM]	Vd [4] [L/kg]	bioavailability [5] [%]	bioavailability [6] [%]	clearance [7] [mL/min/kg]	half-life [8] [h]	half-life [9] [h]	Vd [10] [L/kg]	clearance [11] [mL/min/kg]	Vd [12] [L/kg]	bioavailability [13] [%]	clearance [14] [mL/min/kg]	half-life [15] [h]	SMILES
7.1	2.4	16.2	–	–	–	–	–	–	–	–	–	–	–	–	CC(C)(C)N1CCC(Oc2cc(-c3ccc(F)cc3Cl)c3ccc(=O)n(-c4c(Cl)cccc4Cl)c3c2)CC1
0.3	0.42	1	3.77	31.5	57	35.1	9.96	9.55	28.6	18.5	–	–	–	–	CC(C)(C)N1CCC(c2cc(-c3ccc(F)cc3Cl)c3ccc(=O)n(-c4c(F)cccc4F)c3c2)CC1
1.87	0.77	–	–	–	–	–	–	–	–	–	–	–	–	–	CC(C)(C)N1CCC(Oc2cc(-c3ccc(F)cc3F)c3ccc(=O)n(-c4c(Cl)cccc4Cl)c3c2)CC1
0.1	1	6.4	–	–	–	–	–	–	–	–	–	–	–	–	CC(C)(C)N1CCC(c2cc(-c3ccccc3Cl)c3ccc(=O)n(-c4c(Cl)cccc4Cl)c3c2)CC1
1.6	1.8	13	6.17	–	32.3	–	2.33	–	–	34.1	–	–	–	–	CC(C)(C)N1CCC(Oc2cc(-c3ccccc3Cl)c3ccc(=O)n(-c4c(Cl)cccc4Cl)c3c2)CC1
0.26	3.32	24.2	7.32	–	36	–	3.17	–	–	30.1	–	–	–	–	CC1(C)C=C(c2cc(-c3ccc(F)cc3Cl)c3ccc(=O)n(-c4c(Cl)cccc4Cl)c3c2)CC(C)(C)N1
1.3	3.2	28	0.7	–	0.11	–	0.44	–	–	59	–	–	–	–	C[C@@H](C(=O)O)N1CCC(c2cc(-c3ccc(F)cc3Cl)c3ccc(=O)n(-c4c(Cl)cccc4Cl)c3c2)CC1
10.5	2.2	18.4	–	–	–	–	–	–	–	–	–	–	–	–	CC(C)(C)N1CCC(Oc2cc(-c3ccc(F)cc3F)c3ccc(=O)n(-c4c(F)cccc4F)c3c2)CC1
0.51	0.69	5.2	24	23	62	41.5	9.05	6.5	21.6	32.3	23.8	99.3	20.5	15.5	CC(C)(C)N1CCC(c2cc3c(ccc(=O)n3-c3c(Cl)cccc3Cl)c(-c3ccc(F)cc3F)n2)CC1
6.7	2.59	130	–	–	–	–	–	–	–	–	–	–	–	–	COC(=O)C(C)(C)N1CCC(c2cc(-c3ccc(F)cc3Cl)c3ccc(=O)n(-c4c(Cl)cccc4Cl)c3c2)CC1
0.38	1.6	5.3	11.4	33	67.3	47.5	3.69	5.32	22.1	39.6	–	–	–	–	CC(C)(C)N1CCC(c2cc3c(ccc(=O)n3-c3c(Cl)cccc3Cl)c(-c3ccc(F)cc3Cl)n2)CC1
3.2	3.8	25	–	–	–	–	–	–	–	–	–	–	–	–	C[C@H](C(=O)O)N1CCC(c2cc(-c3ccc(F)cc3Cl)c3ccc(=O)n(-c4c(Cl)cccc4Cl)c3c2)CC1
0.84	3.75	79.1	–	–	–	–	–	–	–	–	–	–	–	–	CC(C)(C(=O)O)N1CCC(c2cc(-c3ccc(F)cc3Cl)c3ccc(=O)n(-c4c(Cl)cccc4Cl)c3c2)CC1
1.4	–	6.8	10.1	–	66	–	5.1	–	–	25	15.1	9.35	37.6	5.42	CC(C)(C)N1CCC(c2cc3c(ccc(=O)n3-c3c(Cl)cccc3Cl)c(-c3ccccc3Cl)n2)CC1
1.15	0.74	50.8	–	–	–	–	–	–	–	–	–	–	–	–	CC(C)(C)N1CC=C(c2cc(-c3ccc(F)cc3Cl)c3ccc(=O)n(-c4c(Cl)cccc4Cl)c3c2)CC1
8.1	1.3	28	–	–	–	–	–	–	–	–	–	–	–	–	COC(=O)C(C)N1CCC(c2cc(-c3ccc(F)cc3Cl)c3ccc(=O)n(-c4c(Cl)cccc4Cl)c3c2)CC1 (stereo not given)
0.31	0.27	2.6	3.84	49	47.7	52.9	3.5	13.6	52.8	14	23.8	83	26.8	5.59	CC(C)(C)N1CCC(c2cc(-c3ccc(F)cc3Cl)c3ccc(=O)n(-c4c(Cl)cccc4Cl)c3c2)CC1
0.14	1.7	2.4	3.82	56.5	69.3	29.2	4.13	9.7	26.2	11.9	8.99	36.2	5.5	19.8	CC(C)(C)N1CCC(c2cc(-c3ccc(F)cc3F)c3ccc(=O)n(-c4c(Cl)cccc4Cl)c3c2)CC1

SMILES	IC50 [1] [nM]	IC50 [2] [nM]	IC50 [3] [nM]	Vd [4] [L/kg]	bioavailability [5] [%]	bioavailability [6] [%]	clearance [7] [mL/min/kg]	half-life [8] [h]	half-life [9] [h]	Vd [10] [L/kg]	clearance [11] [mL/min/kg]	Vd [12] [L/kg]	bioavailability [13] [%]	clearance [14] [mL/min/kg]	half-life [15] [h]
CN1C2CCC1CC(c1cc(-c3ccc(F)cc3Cl)c3ccc(=O)n(-c4c(Cl)cccc4Cl)c3c1)C2 (stereo not given)	0.61	0.82	7.71	6.87	–	30	–	3.12	–	–	27	–	–	–	–
CC(C)N1C2CCC1CC(c1cc(-c3ccc(F)cc3Cl)c3ccc(=O)n(-c4c(Cl)cccc4Cl)c3c1)C2 (stereo not given)	0.51	0.99	8.51	5.23	–	44	–	3.36	–	–	18	–	–	–	–
O=c1ccc2c(-c3ccc(F)cc3Cl)cc(C3CC4CCC(C3)N4)cc2n1-c1c(Cl)cccc1Cl (stereo not given)	0.45	0.89	14.5	6.2	–	13	–	2.56	–	–	37	–	–	–	–
